Drawing on publication PMC4731470, “Inhibitory Effect of Bridged Nucleosides on Thermus aquaticus DNA Polymerase and Insight into the Binding Interactions” (PLoS ONE, 2016), this text covers Ki and IC50 for 2 molecules.

Assay [1] has as its target T1, Taq DNA polymerase (Thermus aquaticus, UniProt P19821).
T1 construct: gene polA
In words: TaqMan qPCR kinetics (double-reciprocal plot); IC50 also by TaqMan qPCR and EvaGreen primer extension assay. The class given is biochemical.

Assay [2] deals with T1, Taq DNA polymerase. In words: TaqMan qPCR (IC50 […]); EvaGreen primer extension assay (IC50 […]). The class given is biochemical. (In general: Real-time PCR tracks product formation cycle by cycle.)

T1 sequence (P19821 whole entry): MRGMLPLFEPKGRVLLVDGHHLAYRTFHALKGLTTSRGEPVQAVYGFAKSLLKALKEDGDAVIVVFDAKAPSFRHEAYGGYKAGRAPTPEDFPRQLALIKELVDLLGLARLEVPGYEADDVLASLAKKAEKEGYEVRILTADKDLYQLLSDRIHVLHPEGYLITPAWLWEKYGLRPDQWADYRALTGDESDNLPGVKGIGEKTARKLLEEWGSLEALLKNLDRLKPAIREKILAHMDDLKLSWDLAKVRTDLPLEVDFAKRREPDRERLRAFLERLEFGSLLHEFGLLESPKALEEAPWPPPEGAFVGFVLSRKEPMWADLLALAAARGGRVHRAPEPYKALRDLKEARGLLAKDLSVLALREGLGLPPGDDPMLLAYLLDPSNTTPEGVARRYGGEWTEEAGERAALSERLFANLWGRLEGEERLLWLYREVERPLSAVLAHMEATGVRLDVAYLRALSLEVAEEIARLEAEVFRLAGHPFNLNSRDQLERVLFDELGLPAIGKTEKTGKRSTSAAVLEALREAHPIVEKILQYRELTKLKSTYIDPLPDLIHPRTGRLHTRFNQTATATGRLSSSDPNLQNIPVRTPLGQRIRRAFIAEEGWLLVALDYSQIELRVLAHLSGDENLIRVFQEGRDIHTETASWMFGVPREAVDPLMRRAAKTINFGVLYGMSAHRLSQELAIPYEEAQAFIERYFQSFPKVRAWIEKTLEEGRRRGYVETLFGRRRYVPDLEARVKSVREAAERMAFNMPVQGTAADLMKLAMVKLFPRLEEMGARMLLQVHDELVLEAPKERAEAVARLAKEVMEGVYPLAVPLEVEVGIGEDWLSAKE

The term Ki denotes the equilibrium dissociation constant of an inhibitor or competing ligand from its target. Read a high Ki as weaker binding. `Cc1cn([C@@H]2O[C@@]3(CO)CO[C@@H]2[C@@H]3O)c(=O)[nH]c1=O` [2',4'-bridged thymidine]: the Ki in assay [1] amounted to 9.7 ± 1.1 µM.
What is called IC50 is the concentration needed to halve the response being measured. `Nc1ccn([C@H]2CC[C@@H](COP(=O)(O)OP(=O)(O)OP(=O)(O)O)O2)c(=O)n1` [ddCTP] displayed an IC50 in assay [2] of 300 ± 100 µM.
